Data taken from patent US7579371B2, “Methods of using [3.2.0] heterocyclic compounds and analogs thereof” (Nereus Pharmaceuticals, Inc., priority 2004, dated 2009).
Where “and” joins values, the source holds several entries; their conditions need not be identical. Equal values may be shown once. Read-outs that look alike come from different tables or passages of the source.

What was measured:
OVCAR-3 = assay: Cell growth inhibition assay (resazurin, 48 h); type: cell-based, human; conditions: OVCAR-3, 48 h
DU 145 = assay: Cell growth inhibition assay (resazurin, 48 h); type: cell-based, human
Cathepsin B = Cathepsin B (Homo sapiens, UniProt P07858); assay: Inhibition of Cathepsin B; type: biochemical
[1] = biological target: T1, proteasome chymotrypsin-like activity in packed whole blood lysate (Mus musculus, UniProt O55234); assay: Proteasome activity in packed whole blood lysate (PWBL) of treated mice; type: in vivo; conditions: 90 minutes
T1 construct: The supernatant (Packed Whole Blood Lysate, PWBL) was transferred to a fresh tube; from tissue; host or cells: packed whole blood cells of Swiss-Webster mice (lysate)
T1 sequence (O55234 60-264): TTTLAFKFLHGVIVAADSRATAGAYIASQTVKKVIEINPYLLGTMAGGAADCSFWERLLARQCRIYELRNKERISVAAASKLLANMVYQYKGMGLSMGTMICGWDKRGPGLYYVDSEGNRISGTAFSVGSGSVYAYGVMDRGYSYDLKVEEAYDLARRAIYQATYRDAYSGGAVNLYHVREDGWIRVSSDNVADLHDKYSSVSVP
Method: In brief, frozen whole blood samples were thawed on ice for one hour, and resuspended in 700 μL of ice cold 5 mM EDTA, pH 8.0 in order to lyse the cells by hypotonic shock. This represents approximately 2-3 times the volume of the packed whole blood cells. Lysis was allowed to proceed for one hour, and the cellular debris was removed by centrifugation at 14,000×g for 10 minutes. The supernatant (Packed Whole Blood Lysate, PWBL) was transferred to a fresh tube, and the pellet discarded. Protein concentration of the PWBL was determined by BCA assay (Pierce) using BSA as a standard.
Proteasome activity was determined by measuring the hydrolysis of a fluorogenic substrate specific for the chymotrypsin-like activity of proteasomes (suc-LLVY-AMC, Bachem Cat. I-1395). […] Hydrolysis of the substrate results in the release of free AMC, which was measured fluorometrically by using λex=390 nm and λem=460 nm. The rate of hydrolysis in this system is linear for at least one hour. The hydrolysis rate of each sample is then normalized to relative fluorescent units per milligram of protein (RFU/mg).
The vehicle control consisted of 2% DMSO in 10% solutol. […] Packed whole blood cells were collected by centrifugation, washed with PBS, and re-centrifuged. All samples were stored at −80° C. prior to the evaluation of the proteasome activity. […]

multiple myeloma cells = assay: Transwell migration assay, VEGF-induced migration; type: cell-based
Method: The compounds disclosed herein inhibit angiogenesis. […] The other compounds disclosed herein are tested in a transwell mighration assay and inhibit migration.

[2] = tested on: 60 human tumor cell lines; assay: NCI screening panel of 60 human tumor cell lines (sulforhodamine B)
IκBα = assay: Western blot of total and phosphorylated IκBα, HEK293 and NF-κB/Luc 293 cells; type: cell-based, human; conditions: 50 and 500 nM, 1 hour pre-treatment
Method: Endogenous protein levels were assessed in both HEK293 cells and the NF-κB/Luc 293 reporter clone.
Antibodies against total and phosphorylated forms of IκBα were used to determine the endogenous level of each protein and anti-Tubulin antibody was used to confirm equal loading of protein.

Jurkat cells = assay: Cytotoxicity against Jurkat cells; type: cell-based, human
CYP1A2 = CYP1A2 (Homo sapiens, UniProt P05177); assay: Preliminary P450 inhibition screen; conditions: tested at 10 μM
CYP1A2, sequence (P05177 whole entry): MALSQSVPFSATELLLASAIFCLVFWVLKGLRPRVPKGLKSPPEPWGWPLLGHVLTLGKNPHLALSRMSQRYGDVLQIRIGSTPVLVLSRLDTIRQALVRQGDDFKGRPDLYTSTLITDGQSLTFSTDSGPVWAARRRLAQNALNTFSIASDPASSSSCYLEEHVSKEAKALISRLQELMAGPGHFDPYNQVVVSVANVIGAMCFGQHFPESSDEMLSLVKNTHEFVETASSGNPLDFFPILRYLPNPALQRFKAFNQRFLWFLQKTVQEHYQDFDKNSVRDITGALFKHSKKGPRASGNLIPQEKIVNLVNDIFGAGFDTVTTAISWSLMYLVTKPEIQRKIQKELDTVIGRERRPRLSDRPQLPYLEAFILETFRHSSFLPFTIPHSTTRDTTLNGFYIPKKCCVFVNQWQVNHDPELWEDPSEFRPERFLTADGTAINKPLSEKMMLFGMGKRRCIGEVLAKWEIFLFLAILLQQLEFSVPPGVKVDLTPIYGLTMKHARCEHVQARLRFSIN
Source text: (§1) These studies consisted of solubility assessment, LogD^7.4 determination and a preliminary screen to detect cytochrome P450 enzyme inhibition.

CYP2D6 = CYP2D6 (Homo sapiens, UniProt P10635); assay: Preliminary P450 inhibition screen; conditions: tested at 10 μM
CYP2D6, sequence (P10635 whole entry): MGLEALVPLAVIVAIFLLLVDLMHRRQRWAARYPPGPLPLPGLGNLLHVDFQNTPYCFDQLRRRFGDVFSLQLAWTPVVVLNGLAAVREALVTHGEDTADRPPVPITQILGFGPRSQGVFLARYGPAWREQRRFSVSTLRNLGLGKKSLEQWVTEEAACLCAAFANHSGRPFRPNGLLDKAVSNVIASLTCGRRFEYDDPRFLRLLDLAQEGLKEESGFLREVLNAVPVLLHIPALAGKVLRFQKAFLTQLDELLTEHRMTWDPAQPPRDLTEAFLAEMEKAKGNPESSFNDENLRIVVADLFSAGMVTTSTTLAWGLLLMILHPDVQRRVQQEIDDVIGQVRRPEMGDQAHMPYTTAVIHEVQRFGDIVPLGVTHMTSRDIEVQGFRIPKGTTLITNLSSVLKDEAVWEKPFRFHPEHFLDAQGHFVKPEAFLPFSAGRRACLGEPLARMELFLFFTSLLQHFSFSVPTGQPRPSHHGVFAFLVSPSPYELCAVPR
Source text: as §1

CYP3A4 = CYP3A4 (Homo sapiens, UniProt P08684); assay: Preliminary P450 inhibition screen; conditions: tested at 10 μM
CYP3A4, sequence (P08684 whole entry): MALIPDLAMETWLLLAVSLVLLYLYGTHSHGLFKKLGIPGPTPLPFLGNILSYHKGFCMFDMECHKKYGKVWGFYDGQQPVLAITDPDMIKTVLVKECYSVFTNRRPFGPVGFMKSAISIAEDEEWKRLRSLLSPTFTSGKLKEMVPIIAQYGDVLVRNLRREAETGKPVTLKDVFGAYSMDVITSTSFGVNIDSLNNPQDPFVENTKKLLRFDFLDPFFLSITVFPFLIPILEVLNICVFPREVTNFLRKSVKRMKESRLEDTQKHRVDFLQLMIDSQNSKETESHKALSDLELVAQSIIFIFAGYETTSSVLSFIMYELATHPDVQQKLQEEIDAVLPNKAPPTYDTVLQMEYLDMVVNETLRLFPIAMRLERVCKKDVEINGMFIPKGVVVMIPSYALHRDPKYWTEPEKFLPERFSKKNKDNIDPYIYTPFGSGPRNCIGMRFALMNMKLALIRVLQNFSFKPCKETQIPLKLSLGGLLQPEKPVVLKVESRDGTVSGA
Source text: as §1

CYP2C19 = CYP2C19 (Homo sapiens, UniProt P33261); assay: Preliminary P450 inhibition screen; conditions: tested at 10 μM
CYP2C19, sequence (P33261 whole entry): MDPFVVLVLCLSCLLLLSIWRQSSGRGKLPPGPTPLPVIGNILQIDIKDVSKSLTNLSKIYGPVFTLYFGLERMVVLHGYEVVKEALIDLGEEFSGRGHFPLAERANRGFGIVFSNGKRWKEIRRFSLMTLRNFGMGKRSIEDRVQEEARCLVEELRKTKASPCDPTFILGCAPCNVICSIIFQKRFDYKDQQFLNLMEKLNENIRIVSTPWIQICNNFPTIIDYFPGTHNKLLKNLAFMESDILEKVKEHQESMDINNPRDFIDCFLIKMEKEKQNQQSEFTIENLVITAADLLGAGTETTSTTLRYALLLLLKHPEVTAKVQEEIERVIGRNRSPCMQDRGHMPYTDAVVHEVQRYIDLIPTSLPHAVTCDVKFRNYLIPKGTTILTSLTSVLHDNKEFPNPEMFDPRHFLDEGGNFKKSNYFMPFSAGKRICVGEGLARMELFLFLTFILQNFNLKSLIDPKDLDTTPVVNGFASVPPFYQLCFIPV
Source text: as §1

CYP2C9 = CYP2C9 (Homo sapiens, UniProt P11712); assay: Preliminary P450 inhibition screen; conditions: tested at 10 μM
CYP2C9, sequence (P11712 whole entry): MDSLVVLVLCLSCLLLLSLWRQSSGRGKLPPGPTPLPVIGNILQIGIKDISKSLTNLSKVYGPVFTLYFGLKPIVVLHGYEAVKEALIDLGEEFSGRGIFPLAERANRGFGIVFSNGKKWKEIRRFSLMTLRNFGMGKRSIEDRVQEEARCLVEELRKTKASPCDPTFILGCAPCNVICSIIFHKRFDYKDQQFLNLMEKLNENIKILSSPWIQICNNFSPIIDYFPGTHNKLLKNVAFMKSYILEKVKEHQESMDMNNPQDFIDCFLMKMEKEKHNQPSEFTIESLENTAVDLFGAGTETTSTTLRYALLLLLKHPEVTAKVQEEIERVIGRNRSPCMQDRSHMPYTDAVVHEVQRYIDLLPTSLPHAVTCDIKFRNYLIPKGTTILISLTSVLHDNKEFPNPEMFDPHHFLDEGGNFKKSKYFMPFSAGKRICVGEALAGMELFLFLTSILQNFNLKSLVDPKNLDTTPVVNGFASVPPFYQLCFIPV
Source text: as §1

NF-κB/Luc 293 cells = assay: Viability of NF-κB/Luc 293 cells (resazurin, 24 hr); type: cell-based, human; conditions: ~7 nM
[3] = biological target: T2, human erythrocyte 20S proteasomes, chymotrypsin-like activity (Homo sapiens, UniProt P28074); assay: Chymotrypsin-like activity of human erythrocyte 20S proteasomes; type: biochemical
T2 construct: Human erythrocyte 20S proteasomes were obtained from BIOMOL (Cat. # SE-221); purchased BIOMOL SE-221; host or cells: human erythrocytes

[4] = Maximum tolerated dose determination in female BALB/c mice; type: in vivo, mouse
Source text: In vivo studies were designed to determine the MTD of Salinosporamide A when administered intravenously to female BALB/c mice.
Animals were observed daily for clinical signs and were weighed individually twice weekly until the end of the experiment (maximum of 14 days after the last day of dosing).

[5] = tested on: MM.1R and Doxorubicin-resistant Dox-40 cell lines
PANC-1 = assay: Cell growth inhibition assay (resazurin, 48 h); type: cell-based; conditions: Homo sapiens, PANC-1, 48 h
HEK293 = assay: Cell growth inhibition assay (resazurin, 48 h); type: cell-based; conditions: Homo sapiens, HEK293, 48 h

## C[C@@]12OC(=O)[C@]1([C@@H](O)[C@@H]1C=CCCC1)NC(=O)[C@@H]2CCCl [Formula II-16, Salinosporamide A]
HL-60; HL-60
  % cytotoxicity: 88% and 91%
HL-60; HL-60, 48 h
  EC50: 30 nM
OVCAR-3; Homo sapiens
  EC50: 69 nM
OVCAR-3
  EC50: 49 ± 31 nM
DU 145; DU 145
  % cytotoxicity: 75 ± 4%
DU 145; Homo sapiens, DU 145, 48 h
  EC50: 37 ± 10 nM
Cathepsin B
  EC50: > 200000 nM
[1]
  proteasomal activity in PWBL after oral administration: active upon oral administration
Multiple myeloma cells
  VEGF-induced migration of multiple myeloma cells: blocked
[2]; 60 cell, 48 h, read-out: mean GI50
  GI50: < 10 nM
[2]; SK-MEL-28, read-out: LC50
  CC50: < 10 nM
[2]; read-out: LC50
  CC50: < 10 nM
IκBα
  effect on total IκBα and phospho-IκBα upon TNF-α stimulation: reduced the degradation of total IκBα but also retained the phospho-IκBα level
Jurkat cells
  % max cell kill: 97%
Jurkat cells; Homo sapiens
  EC50: 10 nM
CYP1A2
  inhibition of CYP1A2: 3%
CYP2D6
  inhibition of CYP2D6: 19%
CYP3A4
  inhibition of CYP3A4: 6%
CYP2C19
  inhibition of CYP2C19: 22%
CYP2C9
  inhibition of CYP2C9: 6%
NF-κB/Luc 293 cells
  cell viability at the NF-κB EC50 concentration: did not affect cell viability
[3]
  EC50: ~3 nM and ~4 nM
[4]; i.v. qdx5, female BALB/c mice
  well tolerated dose, daily for five consecutive days: up to 0.1 mg/kg
[4]; qdx1, female BALB/c mice
  tolerated single intravenous dose: up to 0.25 mg/kg
[5]
  activity against drug resistant multiple myeloma: active against MM.1R and Doxorubicin-resistant Dox-40 cell lines
PANC-1
  EC50: 60 nM
HEK293
  EC50: 47 nM
